Assay [1] concerns Acinetobacter baumannii ATCC 17978. Briefly: Mouse thigh infection model. The assay is classed as in vivo, BALB/c mice. The conditions noted are these: for Mean Log CFU/g thigh 72 hr: 72 hr treatment. The procedure:
Groups of 5 female specific-pathogen-free BALB/c mice weighing 18±2 g were used. In the 24 hr model (bacterial counts determined 24 hr after treatment start), mice were rendered neutropenic with cyclophosphamide intraperitoneal (IP) administration conducted at Days −4 (150 mg/kg), and day −1 (100 mg/kg). In the 72 hr model (bacterial counts determined 72 hr after treatment start), animals were rendered persistently neutropenic for the duration of the infection period with cyclophosphamide intraperitoneal (IP) administration conducted at Days −4 (150 mg/kg), −1 (100 mg/kg) and +1 (100 mg/kg). Persistent neutropenia is required to prevent pathogen clearance from thigh tissue in the 74 hr model. Nutritional supplementation (diet gel) plus saline SC injections were provided daily to help animals tolerate the cyclophosphamide treatment.
(§1) On day 0, animals were inoculated intramuscularly (0.1 ml/thigh) with a 1.67×10^4 inoculum count of Acinetobacter baumannii ATCC 17978. Vehicle control (40% Captisol), positive control (tigecycline) or test substances were then administered 2 hr post infection by the subcutaneous (SC) route of administration. Each dosing group consisted of 5 female mice. The MICs of the compounds against the test strain were 8 μg/ml, 2 μg/ml and […] for compound 201, compound 71 and compound 200, respectively. At 26 or 74 hours after inoculation (24 or 72 hr after treatment initiation), animals were euthanized with CO2 asphyxiation and the thigh tissue harvested from each of the test animals. The tissues were homogenized in 3 mL of PBS, pH 7.4 with a homogenizer. Homogenates, 0.1 mL, were used for serial 10-fold dilutions and plated onto NB agar for colony counts. Efficacy is calculated as the change in log CFU/g thigh vs. the time 0 (treatment initiation) control.

Assay [2] relates to A. baumannii ATCC BAA1605. Nature of the assay: Broth microdilution MIC assay. It counts as cell-based. The following applies: Acinetobacter baumannii, ATCCBAA1605; CA-MHB, 35° C., 20 hours.
Assay [3] concerns S. aureus ATCC 29213. Nature of the assay: Broth microdilution MIC assay. The conditions noted are these: Staphylococcus aureus, ATCC29213; CA-MHB, 35° C., 20 hours. It counts as cell-based. In general terms: In broth dilution the organism is exposed to a series of concentrations in liquid medium.
Assay [4] concerns K. pneumoniae A6030827. Briefly: Broth microdilution MIC assay. It counts as cell-based. The conditions noted are these: Klebsiella pneumoniae, CA-MHB, 35° C., 20 hours.
Assay [5] deals with E. coli AG100. Briefly: Broth microdilution MIC assay. It counts as cell-based. The following applies: Escherichia coli, CA-MHB, 35° C., 20 hours.
Assay [6] has as its system Acinetobacter baumannii ATCC 17978. Briefly: MIC against the in vivo test strain. It counts as cell-based. The conditions noted are these: Acinetobacter baumannii, ATCC17978; A. baumannii ATCC 17978. The protocol: The antibacterial activity of FabI inhibitors against select Gram-negative and Gram-positive bacterial species including susceptible and multi-drug resistant A. baumannii, E. coli, K. pneumoniae and S. aureus was tested using the broth microdilution Minimal Inhibitory Concentration (MIC) assay following CLSI guidelines for insoluble compounds. Test articles were serially diluted 2-fold in 100% dimethyl sulfoxide (DMSO) and then diluted 100-fold into cation adjusted Mueller-Hinton broth (CA-MHB) to achieve a 10-point test concentration range in 1% DMSO. Final compound concentrations were 0.016-8 μg/ml for S. aureus or 0.06-32 μg/ml for the Gram-negative species. MIC test plates were then prepared by transferring 100 μl of the final assay medium (test article in CA-MHB, 1% DMSO) into the appropriate wells of a sterile, low binding 96-well polystyrene plate. Direct colony suspension inoculums of the test strains were freshly prepared per CLSI guidelines, and the appropriate test wells were inoculated to achieve a final bacterial cell density of 5×10^5 CFU/ml. Growth control (no test article) and negative control (no bacterial inoculum) wells were also included. Exposure to light was minimized during all stages of assay preparation. […] Bacterial growth was then determined by measuring the optical density at 600 nm (OD600) using a SpectraMax Plus plate-reader spectrophotometer.
as §1
On day 0, animals were anesthetized with etomidate-lipuro emulsion (20 mg/10 mL; 20 mg/kg dose, IV) and then inoculated intranasally with an A. baumannil ATCC 17978 suspension, 1.36×10^5 CFU/mouse, 0.02 mL/mouse. […] Efficacy is calculated as the change in log CFU/g thigh vs. the time 0 (treatment initiation) control.

Broadly, the MIC is the smallest concentration in the dilution series that meets the test's criterion for growth inhibition. A lower MIC goes with inhibition by little substance.

Some results are limits rather than exact numbers.

As to `Cc1c(CN(C)C(=O)/C=C/c2cnc3c(c2)CC[C@H](N)C(=O)N3)oc2ccccc12.Cl` (single isomer, unassigned) [Compound 71], the “Mean Change log CFU/g thigh 72 hr” value was determined as 2.25 log CFU/g thigh in assay [1] (25 mg/kg q6h SC, vs. time 0 control) and 1.10 log CFU/g thigh in assay [1] (50 mg/kg q6h SC, vs. time 0 control). Further, the “Mean Log CFU/g thigh 72 hr” value in assay [1] (25 mg/kg q6h SC, total daily dose 100 mg/kg) was determined as 7.09 log CFU/g thigh; in assay [1] (50 mg/kg q6h SC, total daily dose 200 mg/kg) it was 5.95 log CFU/g thigh. Besides, in assay [1] (50 mg/kg q6h SC, 24 hr, vs. time 0 control), the “Mean Change log CFU/g thigh 24 hr” value turned out to be 0.60 log CFU/g thigh. Further, in assay [1] (50 mg/kg q6h SC, total daily dose 200 mg/kg, 24 hr treatment), the “Mean Log CFU/g thigh 24 hr” value is 5.45 log CFU/g thigh. The “efficacy in words, thigh model summary” value in assay [1] (SC, 24 hr and 72 hr treatment) was “very slight efficacy”. In addition, the MIC was not above 4 µg/mL in assay [2]; not above 4 µg/mL in assay [3]; not above 4 µg/mL in assay [4]; not above 4 µg/mL in assay [5]; 2 µg/mL in assay [6].

The record behind these values is US12473283B2, “Compounds and their use” (Debiopharm International S.A., priority 2019, dated 2025).
